Assay results reported in US7135476B2, “Spiro tetrahydroquinazolines and dihydrocyclopentapyrimidines as CRF antagonists” (Roche Palo Alto LLC, priority 2003, dated 2006).

Molecular target: T1, CRF1 Receptor (Homo sapiens, UniProt P34998)
T1 construct: endogenous in cells; host or cells: IMR-32 human neuroblastoma cells (membrane preparation)
T1 sequence (P34998 24-415): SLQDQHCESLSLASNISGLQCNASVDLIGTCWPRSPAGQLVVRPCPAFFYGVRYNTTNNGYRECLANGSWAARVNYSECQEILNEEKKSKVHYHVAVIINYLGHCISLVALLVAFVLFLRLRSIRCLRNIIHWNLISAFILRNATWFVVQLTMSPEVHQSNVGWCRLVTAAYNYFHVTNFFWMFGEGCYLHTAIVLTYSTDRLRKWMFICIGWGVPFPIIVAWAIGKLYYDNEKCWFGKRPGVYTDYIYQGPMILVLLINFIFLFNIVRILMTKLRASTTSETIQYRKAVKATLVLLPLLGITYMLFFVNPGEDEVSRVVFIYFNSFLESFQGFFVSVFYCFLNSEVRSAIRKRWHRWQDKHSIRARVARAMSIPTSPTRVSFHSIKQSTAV
Experiment: CRF1 Receptor Binding Assay
Details: competition with [125I]Tyr0-ovine CRF, human IMR-32 neuroblastoma cell membranes; pKi derived from pIC50
Description: CRF1 Receptor Binding Assay
Human IMR-32 neuroblastoma cells are grown to 80% confluence in MEM medium containing 10% heat-inactivated FBS, 1 mM Sodium Pyruvate, and 0.1 mM nonessential amino acids. Cell membranes are prepared according the method of Dieterich and DeSouza (1996). The cells (˜5E+9) are resuspended in 10 volumes of wash buffer (5 mM Tris HCl, 10 mM MgCl2, 2 mM EGTA, pH 7.4 at RT), homogenized with a Polytron, and then centrifuged at 45,000 G for 20 min at 4° C. The membrane pellets are washed twice with wash buffer (45,000 G for 20 min at 4° C.) and then resuspended (50 mM Tris HCl, 10 mM MgCl2, 2 mM EGTA, pH 7.4 at RT). Protein concentration is determined using Pierce reagents and BSA as standard. […]
The competition binding assay is performed in a final volume of 250 μl, which contains assay buffer (50 mM Tris-HCl, 10 mM MgCl2, 2 mM EGTA, 0.2% BSA, 0.1 mM bacitracin and 100 kIU/mL aprotinin pH 7.2 at R.T.), 0.05 nM [^125I]Tyr^0-ovine CRF (Du Pont New England Nuclear), 50 μg of membrane protein, and test compound at various concentrations. Non-specific binding is determined with 1 uM hCRF. […] Unbound radioactivity is removed by four rapid washes (0.8 ml/well) with wash buffer. The radioactivity is quantified using a Packard TopCount. Data are analyzed using non-linear iterative curve fitting to obtain IC50 and Hill slope values. […]

Ki: 123 nM
Compound: CCCN(CC1CC1)c1nc(C)nc2c1CCCC21CCc2ccccc21 (stereo not shown) [Compound 1, (2,3,5′,6′,-Tetrahydro)-2′-methyl-4′-(N-propyl-N-cyclo-propylmethyl-amino)spiro[(1H)indene-1,8′-(7H)quina-zoline]]
